The values below come from EP1100483B1, “GLUCOCORTICOID-SELECTIVE ANTI-INFLAMMATORY AGENTS” (Abbott Laboratories, priority 1998, dated 2000).

Broadly, the Ki is the dissociation constant of the complex between target and ligand, obtained from inhibition or displacement.

The target of the first assay is T1, human glucocorticoid receptor-α [GRX] isoform (Homo sapiens, UniProt P04150).
T1 construct: purchased Ligand Pharmaceuticals (San Diego, CA); host or cells: insect SF21 cells (baculovirus)
T1 sequence (P04150 1-777): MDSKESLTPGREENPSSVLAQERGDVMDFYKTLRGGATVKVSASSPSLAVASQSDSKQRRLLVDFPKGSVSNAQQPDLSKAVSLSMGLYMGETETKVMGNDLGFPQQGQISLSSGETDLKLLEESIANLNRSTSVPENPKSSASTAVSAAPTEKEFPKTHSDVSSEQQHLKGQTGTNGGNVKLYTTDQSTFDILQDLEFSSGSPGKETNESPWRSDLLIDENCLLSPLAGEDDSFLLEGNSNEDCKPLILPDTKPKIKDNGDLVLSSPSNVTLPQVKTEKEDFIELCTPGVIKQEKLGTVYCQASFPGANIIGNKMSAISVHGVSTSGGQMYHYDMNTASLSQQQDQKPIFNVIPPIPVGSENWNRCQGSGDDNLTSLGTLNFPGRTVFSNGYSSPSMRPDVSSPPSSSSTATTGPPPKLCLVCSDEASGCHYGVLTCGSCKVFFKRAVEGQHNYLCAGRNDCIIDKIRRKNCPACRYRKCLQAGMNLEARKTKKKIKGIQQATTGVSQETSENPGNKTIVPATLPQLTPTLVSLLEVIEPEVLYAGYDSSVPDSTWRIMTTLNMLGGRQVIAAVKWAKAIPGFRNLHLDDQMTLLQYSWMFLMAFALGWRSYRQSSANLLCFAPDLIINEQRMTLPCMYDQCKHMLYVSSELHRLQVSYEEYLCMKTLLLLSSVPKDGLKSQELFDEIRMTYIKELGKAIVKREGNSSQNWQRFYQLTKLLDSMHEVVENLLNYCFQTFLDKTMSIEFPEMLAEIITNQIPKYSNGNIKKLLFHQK
Nature of the assay: glucocorticoid receptor (GR) cytosol binding assay, [3H]-dexamethasone competition.
Details: not given
The source says:
For glucocorticoid receptor (OR) cytosol binding assays, the procedure described in Anal. […] Briefly, cytosol preparations of human glucocorticoid receptor-α [GRX] isoform and human progesterone receptor-A [PRA] isoform were obtained from Ligand Pharmaceuticals (San Diego, CA). Both receptor cDNAs were cloned into baculovirus expression vectors and expressed in insect SF21 cells. […] Glass fiber type C multiscreen MAFC NOB plates were from Millipore ( Burlington, MA). Hydroxyapatide Bio-Gel HTP gel was obtained from Bio-Rad Laboratories (Hercules. CA). Tris(hydroxymethyl)aminomethane (Tris), ethylenediaminetetraacetic acid (EDTA), glycerol, dithiothreitol (DTT) and sodium moylybdate were obtained from Sigma Chemicals (St. Louis, MO). Microscint-20 scintillation fluid was obtained from Packard Instrument (Meriden, CT). […] GRX and PRA binding reactions were performed in Millipore Multiscreen plates. […] Specific binding was defined as the difference between binding of [^3H]Dex in the absence and in the presence of 1µM unlabeled Dex. After an overnight incubation, 50 µL of hydroxyapatite (25 % weight/volume) slurry were added to each well and plates were incubated for 10 min at 4 °C in a plate shaker. Plates were suctioned with a Millipore vacuum manifold and each well was rinsed with 300 µL of ice-cold binding buffer. A 250 µL aliquot of Packard Microscint-20 was added to each well and the wells were shaken at room temperature for 20 minutes. The amount of radioactivity was determined with a Packard TopCount plate reader.
Compound `Cc1cc(C(c2ccc(N(C)C)cc2)c2cc([N+](=O)[O-])ccc2Cl)ccc1N(C)C` (stereo not drawn) [Example 44, 3'-methyl-4',4"-bis(dimethylamino)-2-chloro-5-nitrotriphenylmethane] gave a Ki of 287 nM.

In turn, `CN(C)c1ccc(C(c2ccc(N(C)C)cc2)c2cc(Cl)cc(Cl)c2Cl)cc1` [Example 16, 4',4" bis(dimethylamino)-2,3,5-trichlorotriphenylmethane] registered a Ki of 479 nM.

`CN(C)c1ccc(C(c2ccc(N(C)C)cc2)c2ccc(Cl)cc2Cl)cc1` [Example 18, 4',4" bis(dimethylamino)-2,4-dichlorotriphenylmethane]: the affinity corresponds to a Ki of 5000 nM.

Compound `CN(C)c1ccc(C(c2ccc(N(C)C)cc2)c2cc(NC(=O)c3ccc([N+](=O)[O-])cc3)ccc2Cl)cc1` [Example 60, 4',4" bis(dimethylamino)-2-chloro-5-(4-nitrobenzamido)triphenylmethane] registered a Ki of 4650 nM.

As to `CN(C)c1ccc(C(c2ccc(N3CCCC3)cc2)c2cc([N+](=O)[O-])ccc2Cl)cc1` (stereo not drawn) [Example 41, 4'-dimethylamino-4"-(N-pyrrolidinyl)-2-chloro-5-nitrotriphenylmethane], the affinity, expressed as Ki, was 4490 nM.

Still in this assay, the particulars now being: [3H]-Dex ~0.9 nM, GRX cytosol, 4 °C overnight; Cheng-Prusoff; read-out: Ki (nM) GR.
Regarding `CN(C)c1ccc(C(c2ccc(N(C)C)cc2)c2ccc([N+](=O)[O-])cc2)cc1` [Example 4, 4',4" bis(dimethylamino)-4-nitrotriphenylmethane], the Ki amounted to 4650 nM.

For `CN(C)c1ccc(C(c2ccc(N(C)C)cc2)c2ccccc2Cl)cc1` [Example 7, 4',4" bis(dimethylamino)-2-chlorotriphenylmethane], the Ki was found to be 1990 nM.

For the compound `CN(C)c1ccc(C(c2ccc(N(C)C)cc2)c2ccc(Cl)c([N+](=O)[O-])c2)cc1` [Example 2, 4',4" bis(dimethylamino)-4-chloro-3-nitrotriphenylmethane], the Ki turned out to be 4200 nM.

Consider `O=[N+]([O-])c1ccc(Cl)c(C(c2ccc(N3CCCC3)cc2)c2ccc(N3CCCC3)cc2)c1` [Example 29, 4',4" bis(N-pyrrolidinyl)-2-chloro-5-nitrotriphenylmethane], for which the Ki worked out at 4560 nM.

As to `Clc1ccc(Cl)c(C(c2ccc(NCc3ccccc3)cc2)c2ccc(NCc3ccccc3)cc2)c1` [Example 37, 4',4" bis(N-benzylamino)-2,5-dichlorotriphenylmethane], the Ki is 421 nM.

In the case of `CN(C)c1ccc(C(Nc2ccccc2)c2cc([N+](=O)[O-])ccc2Cl)cc1` (stereo not drawn) [Example 55, phenyl-[(4'-dimethylaminophenyl)-(2-chloro-5-nitrophenyl)methyl] amine], the Ki came to 1680 nM.

With `CC(=O)Nc1ccc(Cl)c(C(c2ccc(N(C)C)cc2)c2ccc(N(C)C)cc2)c1` [Example 3, 4',4" bis(dimethylamino)-5-acetamido-2-chlorotriphenylmethane], the Ki was 5150 nM.
